In patent US20220348658A1, “ANTI-T CELL ANTIGEN-BINDING MOLECULE TO BE USED IN COMBINATION WITH CYTOKINE INHIBITOR” (Chugai Seiyaku Kabushiki Kaisha, priority 2019, published 2022):

Experiments:
[1] = tested on: patients who manifested CRS after ERY974 administration; experiment: ERY101EG study: use of Tocilizumab for the treatment of CRS; assay type: in vivo, human
Method: In the ERY101EG study, Tocilizumab was used alone or in combination with a steroid and such for the treatment of CRS in some patients at the discretion of the clinical trial investigator (Table 11). The severity of CRS ranged from Grade 1 to Grade 3. Tocilizumab was administered on the same day as the manifestation of CRS, with the exception of two patients, two cases (cohort 10A, 840010006, 840010007). In all of the Tocilizumab-administered cases, CRS recovered four days after the day of Tocilizumab administration.

[2] = Simulation of serum Tocilizumab concentration with population pharmacokinetic models (Frey et al.; Gibiansky et al.); conditions: set from the Frey and Gibiansky models
Method: (§1) FIG. 5A is a simulation of changes in serum Tocilizumab concentration when Tocilizumab is administered at 8 mg/kg (intravenous administration: IV) on Day 0, based on the population pharmacokinetic model reported in the article by Frey et al. The vertical axis represents the serum Tocilizumab concentration (μg/mL), and the horizontal axis represents the number of days after administration of Tocilizumab.
as §1, with “5B” for “5A”, “(IV)” for “(intravenous administration: IV)”, “Gibiansky” for “Frey”
FIG. 6A is a simulation of changes in serum Tocilizumab concentration when Tocilizumab is intravenously administered (IV) at 8 mg/kg on Day 0, based on the population pharmacokinetic model reported in the article by Frey et al. The vertical axis represents the serum Tocilizumab concentration (μg/mL), and the horizontal axis represents the number of days after administration of Tocilizumab. […]

IL-6R [3] = target: T1, IL-6R (Homo sapiens, UniProt P08887); experiment: Population pharmacokinetic model: Michaelis coefficient (Km) for target-mediated elimination of Tocilizumab; conditions: theoretical, from the Km value of Frey et al.
T1 construct: host or cells: population pharmacokinetic models of patients (Frey et al. 2010; Gibiansky and Frey 2012)
T1 sequence (P08887 20-468): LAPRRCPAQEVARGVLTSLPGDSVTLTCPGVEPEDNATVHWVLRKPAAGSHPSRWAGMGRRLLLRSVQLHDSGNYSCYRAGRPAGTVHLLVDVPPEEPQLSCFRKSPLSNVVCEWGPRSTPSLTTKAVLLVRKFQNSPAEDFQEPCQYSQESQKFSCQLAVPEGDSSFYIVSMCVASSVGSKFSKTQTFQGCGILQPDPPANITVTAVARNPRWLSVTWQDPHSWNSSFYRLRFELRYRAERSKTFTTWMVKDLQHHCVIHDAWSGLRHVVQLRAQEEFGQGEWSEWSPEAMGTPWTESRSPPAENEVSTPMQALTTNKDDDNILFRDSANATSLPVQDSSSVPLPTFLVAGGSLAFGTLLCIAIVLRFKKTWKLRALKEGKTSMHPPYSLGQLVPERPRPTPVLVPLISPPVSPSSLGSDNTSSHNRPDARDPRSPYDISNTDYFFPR

IL-6R [4] = target: T1, IL-6R; conditions: cited from earlier work

Substance: Tocilizumab: humanized immunoglobulin G1 (IgG1) kappa anti-human IL-6R monoclonal antibody
- Recovery from CRS after the day of Tocilizumab administration ([1]; all Tocilizumab-administered cases, CRS Grade 1 to Grade 3, alone or with a steroid): four
- Duration from Tocilizumab administration to recovery from CRS ([1]; patient 840010006, cohort 10A, CRS Grade 3 after 2nd ERY974 (0.81 μg/kg), Tocilizumab 8 mg/kg, 3 days after CRS manifestation): 4 days
- Duration from Tocilizumab administration to recovery from CRS ([1]; patient 840010006, cohort 10A, CRS Grade 3 after 3rd ERY974 (0.54 μg/kg), Tocilizumab 8 mg/kg, same day as CRS manifestation): 3 days
- Manifestation of CRS after Tocilizumab administration and until the next administration of this agent ([1]; patient 840010006, cohort 10A, after 2nd ERY974 (0.81 μg/kg), Tocilizumab 8 mg/kg): None
- Presence or absence of CRS recurrence ([1]; patient 840010006, cohort 10A, 1 further ERY974 administration (0.54 μg/kg) after Tocilizumab 8 mg/kg): Present
- Duration from Tocilizumab administration to recovery from CRS ([1]; patient 840010007, cohort 10A, CRS Grade 2, Tocilizumab 8 mg/kg, 6 days after CRS manifestation): 1 days
- Presence or absence of CRS recurrence ([1]; patient 840010007, cohort 10A, 2 further ERY974 administrations (0.54, 0.81 μg/kg) after Tocilizumab 8 mg/kg): Absent
- Manifestation of CRS after Tocilizumab administration and until the next administration of this agent ([1]; patient 840010007, cohort 10A, Tocilizumab 8 mg/kg): None
- Duration from Tocilizumab administration to recovery from CRS ([1]; patient 840020017, cohort 8A, CRS Grade 2, Tocilizumab dose not known, same day as CRS manifestation): 0 days
- Presence or absence of CRS recurrence ([1]; patient 840020017, cohort 8A, 3 further ERY974 administrations (0.36 μg/kg) after Tocilizumab): Absent
- Manifestation of CRS after Tocilizumab administration and until the next administration of this agent ([1]; patient 840020017, cohort 8A, Tocilizumab dose not known): None
- Duration from Tocilizumab administration to recovery from CRS ([1]; patient 840020021, cohort 9A, CRS Grade 1, Tocilizumab 4 mg/kg, same day as CRS manifestation): 0 days
- Presence or absence of CRS recurrence ([1]; patient 840020021, cohort 9A, 9 further ERY974 administrations (0.54 μg/kg) after Tocilizumab 4 mg/kg): Absent
- Manifestation of CRS after Tocilizumab administration and until the next administration of this agent ([1]; patient 840020021, cohort 9A, Tocilizumab 4 mg/kg): None
- Duration from Tocilizumab administration to recovery from CRS ([1]; patient 840020022, cohort 9A, CRS Grade 2, Tocilizumab 4 mg/kg, within 2 hours from CRS manifestation): 0 days
- Presence or absence of CRS recurrence ([1]; patient 840020022, cohort 9A, 3 further ERY974 administrations (0.54 μg/kg) after Tocilizumab 4 mg/kg): Absent
- Manifestation of CRS after Tocilizumab administration and until the next administration of this agent ([1]; patient 840020022, cohort 9A, Tocilizumab 4 mg/kg): None
- Duration from Tocilizumab administration to recovery from CRS ([1]; patient 840020023, cohort 9B, CRS Grade 2, Tocilizumab 4 mg/kg, same day as CRS manifestation): 0 days
- Presence or absence of CRS recurrence ([1]; patient 840020023, cohort 9B, 19 further ERY974 administrations (0.54 μg/kg) after Tocilizumab 4 mg/kg): Absent
- Manifestation of CRS after Tocilizumab administration and until the next administration of this agent ([1]; patient 840020023, cohort 9B, Tocilizumab 4 mg/kg): None
- Duration from Tocilizumab administration to recovery from CRS ([1]; patient 840060002, cohort 8B, CRS Grade 2, Tocilizumab 8 mg/kg, same day as CRS manifestation): 2 days
- Presence or absence of CRS recurrence ([1]; patient 840060002, cohort 8B, 9 further ERY974 administrations (0.36 μg/kg) after Tocilizumab 8 mg/kg): Absent
- Manifestation of CRS after Tocilizumab administration and until the next administration of this agent ([1]; patient 840060002, cohort 8B, Tocilizumab 8 mg/kg): None
- Estimated effective serum concentration (target concentration) of Tocilizumab [2]: 10 µg/mL
- Serum concentration of Tocilizumab required for binding to 80% or more of IL-6R (IL-6R [3]): ≥ 10800 ng/mL
- Michaelis coefficient (Km) for target-mediated elimination (IL-6R [4]; article by Frey et al., patients with rheumatoid arthritis): 2.7 µg/mL
- Michaelis coefficient (Km value) (IL-6R [4]; article by Gibiansky et al.): 0.367 µg/mL
